{"source": "patent US5691348A", "about": "“Pyridyl imidazole derivatives and processes for the preparation thereof” (Daewoo Electronics Co., Ltd., priority 1994, dated 1997)", "key": {"unanesthetized dogs": {"test_system": "unanesthetized dogs", "assay": "Maximum blood pressure lowering effect in unanesthetized dogs at different amounts", "assay_type": "in vivo, dog", "method": "(§1) A number of dog was fed freely in a feeding room and those weighing 7 to 12 kg in good health were selected regardless of their gender.\n(§2) The test dog was anesthetized with 30 mg/kg of pentobarbital sodium by intravenous injection and the left femoral artery and femoral vein were separated carefully. Silicone catheter, specially prepared and filled with saline treated with heparin (1,000 IU/ml), was cannulated into the blood vessels. After the surgery, the dog was constrained to measure the blood pressure continuously with Gould 2000 physiograph adapted to a Grass P23XL pressure transducer; and the heart rate was monitored with ECG/Biotacho amplifier. The dog was tested at least 2 days after the surgery.\n(§3) 10 mg/kg of furosemide was injected intramuscularly 18 hours (in case of intravenous injection, 2 hours) before the beginning of the test (administration of the test compound) to improve the activity of renin in blood plasma. After the injection of furosemide, neither food nor water was provided. The test compound was suspended in Tween 80 and administered in an amount of 20 mg/kg orally. The blood pressure and heart rate were measured up to 8 hours after the administration of each test compound.\nThe maximum blood pressure lowering effect of the present compounds and the control compounds were determined in different amounts of administration using the same method as (i) and the results are given in Table 4."}, "[1]": {"assay": "Metabolite analysis: enzyme digestion test with rat liver microsome, HPLC", "assay_type": "in vitro ADME", "details": "100 μM, 1 hour at 37° C., rat liver microsome, HPLC (FIG. 1)", "method": "Enzyme digestion test was executed in order to detect the metabolite of the test compound in vivo.\n500 μg of NADP^+, 11 U of glucose-6-phosphate dehydrogenase and 200 μg of rat liver microsome were added to 1 ml of 0.1M phosphate buffer (pH 7.4), and to the resulting solution was added glucose-6-phosphate to a concentration of 10 mM. The resultant was incubated for 1 minute at 37° C. and added with each of the present compound (Example 3) and the Merck compound to a concentration of 100 μM. The mixture was incubated for 1 hour at 37° C., and then was added with 2 ml of dichloromethan to cease the reaction. The resultant was extracted with dichloromethan and the extract was evaporated to obtain a residue. The reside was analyzed using HPLC after dissolving in a mobile phase of the HPLC.\nColumn: Nucleosil phenyl column (0.46×25 cm, 5 μM)\nMobile phase: acetonitrile (50 mM, pH 5.0; 35:65, v/v)\nFIG. 1 is a HPLC chart showing the result of the enzyme digestion test of the Merck compound and the compound of Example 3."}, "renal hypertensive rat": {"test_system": "renal hypertensive rat", "assay": "Blood pressure lowering effect with respect to dose (renal hypertensive rats)", "assay_type": "in vivo, Sprague-Dawley rat", "details": "3 mg/kg, oral", "from_the_text": "(§4) To induce renal hypertension, left renal artery of 4 week-old male Sprague-Dawley rat (from The Korea Research Institute of Chemical Technology) was ligated. The rat was anesthetized with ether and the surgical region on the left abdomen of the rat was shaved, disinfected, and then incised about 1 cm vertically. The renal artery near abdominal aorta was isolated carefully from surrounding tissues and veins, and then ligated completely with a suture (4/0 sterile surgical silk). The muscular strata and skin of the surgical area were sutured with a suture (4/0 sterile surgical silk). The surgical region was disinfected to prevent infection and thereafter, 200 to 250 mg/kg/day of cephazolin sodium was injected intramuscularly for 2 days. 6 to 8 days after the ligation, rats showing systolic pressure of more than 180 mmHg were selected for renal hypertension test. The blood pressure was determined by a tail-cuff method from the tail under unanesthetized condition (Gerold, M. et al., Arzneimittel-Forsch., 18, 1285(1968)).\n(§5) Each of the compounds to be tested was administered intravenously or orally into the renal hypertensive rat. The blood pressure of the rat was determined by direct method (Chiu, A. T. et al., J. Pharmacol. Exp. Ther., 250, 867(1989)) using a catheter. The rat was anesthetized with ketamine hydrochloride (125 mg/kg, i.p.) and a catheter was filled with saline and inserted into a carotid artery and […]. The surgical area was sutured with a metal clip. The rat was relaxed at least 3 hours and the catheter in the carotid artery was adapted to an isotec pressure transducer to determine the blood pressure and heart rate with a physiograph (Linearcorder WR3310). After the blood pressure was stabilized, the test compound was administered intravenously or orally. For intravenous administration, the administered volume and washing volume were 1.0 ml/kg and 0.2 ml, respectively. The blood pressure and heart rate were measured in regular intervals up to 24 hours after the administration of the test compound and compared with those measured after the administration of the control compound Losartan.\n(§6) The test compound was dissolved in 0.05N KOH for intravenous administration and suspended in Tween 80 for oral administration.\nThe present compounds, Losartan(Dup 753) and the Merck compound were administrated orally to rats in 10, 3 and 1 mg/kg under the same condition as in (ii) and the blood pressure lowering effect was determined."}, "[2]": {"test_system": "furosemide-administered dogs", "assay": "Duration of action in furosemide-administered dogs", "assay_type": "in vivo, dog", "details": "0.3 mg oral", "method": "as §1, §2\nas §3, with “The test compound was suspended in Tween 80 and administered in an amount of 20 mg/kg orally.” left out\nThe compound of Example 1 and the Merck compound were administered orally to the furosemide-administrated dogs as in test 3(i), and blood pressure lowering effect was measured with time."}, "renal hypertensive rats": {"test_system": "renal hypertensive rats", "assay": "Duration of action in renal hypertensive rats", "assay_type": "in vivo, Sprague-Dawley rat", "details": "3 mg/kg oral", "from_the_text": "as §4, §5, §6\nThe compound of Example 1 and the Merck compound were tested using the hypertensive rats of test 2(i). 3 mg/kg of each compound was administered orally and blood pressure lowering effect with time was determined to measure the duration of action of the compounds."}}, "data": [{"smiles": "CCc1nc2c(C)cc(C)nc2n1Cc1ccc(-c2ccccc2-c2nnn[nH]2)cc1", "note": "[Merck Compound, reference compound]", "values": [{"measurement": "Maximum Blood Pressure Lowering Effect", "setting": "unanesthetized dogs; 0.1 mg/kg", "result": -20, "unit": "%"}, {"measurement": "Maximum Blood Pressure Lowering Effect", "setting": "unanesthetized dogs; 0.3 mg/kg", "result": -24, "unit": "%"}, {"measurement": "metabolite from the enzymatic digestion", "setting": "[1]", "result": "has a metabolite"}, {"measurement": "Maximum Blood Pressure Lowering Effect", "setting": "renal hypertensive rat", "result": -40, "unit": "%"}, {"measurement": "Maximum Blood Pressure Lowering Effect", "setting": "[2]; 0 min", "result": 0.0, "unit": "%"}, {"measurement": "Maximum Blood Pressure Lowering Effect", "setting": "[2]; 10 min", "result": -5.0, "unit": "%"}, {"measurement": "Maximum Blood Pressure Lowering Effect", "setting": "[2]; 20 min", "result": -12.2, "unit": "%"}, {"measurement": "Maximum Blood Pressure Lowering Effect", "setting": "[2]; 30 min", "result": -14.4, "unit": "%"}, {"measurement": "Maximum Blood Pressure Lowering Effect", "setting": "[2]; 60 min", "result": -20.1, "unit": "%"}, {"measurement": "Maximum Blood Pressure Lowering Effect", "setting": "[2]; 90 min", "result": -24.4, "unit": "%"}, {"measurement": "Maximum Blood Pressure Lowering Effect", "setting": "[2]; 120 min", "result": -19.1, "unit": "%"}, {"measurement": "Maximum Blood Pressure Lowering Effect", "setting": "[2]; 150 min", "result": -24.2, "unit": "%"}, {"measurement": "Maximum Blood Pressure Lowering Effect", "setting": "[2]; 180 min", "result": -18.9, "unit": "%"}, {"measurement": "Maximum Blood Pressure Lowering Effect", "setting": "[2]; 210 min", "result": -17.0, "unit": "%"}, {"measurement": "Maximum Blood Pressure Lowering Effect", "setting": "[2]; 240 min", "result": -17.0, "unit": "%"}, {"measurement": "Maximum Blood Pressure Lowering Effect", "setting": "[2]; 270 min", "result": -13.4, "unit": "%"}, {"measurement": "Maximum Blood Pressure Lowering Effect", "setting": "[2]; 300 min", "result": -14.9, "unit": "%"}, {"measurement": "Maximum Blood Pressure Lowering Effect", "setting": "[2]; 330 min", "result": -15.6, "unit": "%"}, {"measurement": "Maximum Blood Pressure Lowering Effect", "setting": "[2]; 360 min", "result": -15.6, "unit": "%"}, {"measurement": "Maximum Blood Pressure Lowering Effect", "setting": "[2]; 390 min", "result": -11.4, "unit": "%"}, {"measurement": "Maximum Blood Pressure Lowering Effect", "setting": "[2]; 420 min", "result": -10.7, "unit": "%"}, {"measurement": "Maximum Blood Pressure Lowering Effect", "setting": "[2]; 450 min", "result": -11.4, "unit": "%"}, {"measurement": "Maximum Blood Pressure Lowering Effect", "setting": "[2]; 480 min", "result": -13.8, "unit": "%"}, {"measurement": "time for which the maximum blood pressure lowering effect lasted after the administration", "setting": "[2]; Table 6, dogs", "result": "2 to 3", "unit": "h"}, {"measurement": "Maximum Blood Pressure Lowering Effect", "setting": "renal hypertensive rats; 0 min", "result": 0, "unit": "%"}, {"measurement": "Maximum Blood Pressure Lowering Effect", "setting": "renal hypertensive rats; 10 min", "result": -15, "unit": "%"}, {"measurement": "Maximum Blood Pressure Lowering Effect", "setting": "renal hypertensive rats; 20 min", "result": -27, "unit": "%"}, {"measurement": "Maximum Blood Pressure Lowering Effect", "setting": "renal hypertensive rats; 30 min", "result": -28, "unit": "%"}, {"measurement": "Maximum Blood Pressure Lowering Effect", "setting": "renal hypertensive rats; 60 min", "result": -26, "unit": "%"}, {"measurement": "Maximum Blood Pressure Lowering Effect", "setting": "renal hypertensive rats; 90 min", "result": -28, "unit": "%"}, {"measurement": "Maximum Blood Pressure Lowering Effect", "setting": "renal hypertensive rats; 120 min", "result": -25, "unit": "%"}, {"measurement": "Maximum Blood Pressure Lowering Effect", "setting": "renal hypertensive rats; 240 min", "result": -40, "unit": "%"}, {"measurement": "Maximum Blood Pressure Lowering Effect", "setting": "renal hypertensive rats; 360 min", "result": -36, "unit": "%"}, {"measurement": "Maximum Blood Pressure Lowering Effect", "setting": "renal hypertensive rats; 1320 min", "result": -35, "unit": "%"}, {"measurement": "Maximum Blood Pressure Lowering Effect", "setting": "renal hypertensive rats; 1440 min", "result": -40, "unit": "%"}]}]}
